The source of these data is article PMC4887296 (Biochemistry, 2016).

SMILES strings stand for the structures. Read-outs that look alike come from different tables or passages of the source.

Assay [1] addresses T1, wild-type ypFabV (Yersinia pestis, UniProt Q8Z9U1). It is filed as biochemical.
A further assay addresses Wt ypFabV (Yersinia pestis, UniProt Q8Z9U1). The assay is described as follows: biochemical. The format is binding.
Assay [2] has as its target T1, wild-type ypFabV. The format is biochemical. This is another data set of the same source.

Usually Km stands for the concentration of substrate that gives half-maximal velocity. Usually Ki stands for a measure of affinity in units of concentration, obtained from inhibition or displacement. A word on the Kd: it is the constant that tells how readily two partners part at equilibrium.

T1 sequence (Q8Z9U1 whole entry, looked up): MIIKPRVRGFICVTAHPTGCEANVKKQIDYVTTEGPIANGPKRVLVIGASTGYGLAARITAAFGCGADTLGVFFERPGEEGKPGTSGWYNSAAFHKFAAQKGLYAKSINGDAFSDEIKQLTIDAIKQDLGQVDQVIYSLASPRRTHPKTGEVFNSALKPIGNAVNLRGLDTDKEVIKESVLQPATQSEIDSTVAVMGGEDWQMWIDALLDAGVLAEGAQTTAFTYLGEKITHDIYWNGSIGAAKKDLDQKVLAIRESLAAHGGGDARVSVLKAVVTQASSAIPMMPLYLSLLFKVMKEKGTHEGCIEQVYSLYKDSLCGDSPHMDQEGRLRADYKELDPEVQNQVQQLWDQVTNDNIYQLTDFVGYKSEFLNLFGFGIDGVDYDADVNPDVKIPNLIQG
Sequence of Wt ypFabV (Q8Z9U1 whole entry, looked up): as above

Turning to `NC(=O)C1=CN([C@@H]2O[C@H](COP(=O)(O)OP(=O)(O)OC[C@H]3O[C@@H](n4cnc5c(N)ncnc54)[C@H](O)[C@@H]3O)[C@@H](O)[C@H]2O)C=CC1` [NADH], the Km on wild-type ypFabV [1] (read-out: KM (global fit)) stood at 10 ± 1 µM. In addition, the Ki on wild-type ypFabV [1] (read-out: Ki, NADH) worked out at 22 ± 3 µM. Moreover, on Wt ypFabV (read-out: Kd Wt ypFabV, pH 8), the Kd was determined as 13 ± 1 µM.

For the compound `NC(=O)c1ccc[n+]([C@@H]2O[C@H](COP(=O)([O-])OP(=O)(O)OC[C@H]3O[C@@H](n4cnc5c(N)ncnc54)[C@H](O)[C@@H]3O)[C@@H](O)[C@H]2O)c1` [NAD^+], on wild-type ypFabV [2], the “product inhibition pattern with respect to NADH, wild-type ypFabV” value is given as “competitive” and the “product inhibition pattern with respect to ddCoA, wild-type ypFabV” value is “noncompetitive”.

As to `CCCCCCCCC/C=C/C(=O)SCCNC(=O)CCNC(=O)[C@H](O)C(C)(C)COP(=O)(O)OP(=O)(O)OC[C@H]1O[C@@H](n2cnc3c(N)ncnc32)[C@H](O)[C@@H]1OP(=O)(O)O` [ddCoA, trans-2-dodecenoyl-CoA], on wild-type ypFabV [1], the “kcat (global fit)” value worked out at 97.67 ± 6.47 s⁻¹ and the “kcat, wild-type ypFabV” value is 91.13 ± 7.1 s⁻¹. On wild-type ypFabV [1] (read-out: KM (global fit)), the Km was 19 ± 1 µM. The Km at wild-type ypFabV [1] (read-out: KM, wild-type ypFabV) is 14 ± 1 µM. This compound registered a Kd at Wt ypFabV of 13 ± 1 µM.

For `CCCCCCCCCCCC(=O)SCCNC(=O)CCNC(=O)[C@H](O)C(C)(C)COP(=O)(O)OP(=O)(O)OC[C@H]1O[C@@H](n2cnc3c(N)ncnc32)[C@H](O)[C@@H]1OP(=O)(O)O` [lauroyl-CoA, Lauroyl-CoA], at wild-type ypFabV [2], the “product inhibition pattern with respect to NADH, wild-type ypFabV” value is reported as “noncompetitive” and the “product inhibition pattern with respect to ddCoA, wild-type ypFabV” value is on record as “noncompetitive”.

For the compound `CCCCCCC/C=C/C(=O)SCCNC(=O)CCNC(=O)[C@H](O)C(C)(C)COP(=O)(O)OP(=O)(O)OC[C@H]1O[C@@H](n2cnc3c(N)ncnc32)[C@H](O)[C@@H]1OP(=O)(O)O` [trans-2-decenoyl-CoA], the “kcat, wild-type ypFabV” value on wild-type ypFabV [1] was 5.53 ± 0.333 s⁻¹. In addition, on wild-type ypFabV [1] (read-out: KM, wild-type ypFabV), the Km was found to be 23 ± 3 µM.

With `CCCCC/C=C/C(=O)SCCNC(=O)CCNC(=O)[C@H](O)C(C)(C)COP(=O)(O)OP(=O)(O)OC[C@H]1O[C@@H](n2cnc3c(N)ncnc32)[C@H](O)[C@@H]1OP(=O)(O)O` [trans-2-octenoyl-CoA], the “kcat, wild-type ypFabV” value on wild-type ypFabV [1] is 0.267 ± 0.017 s⁻¹. Also, on wild-type ypFabV [1] (read-out: KM, wild-type ypFabV), the Km was 7 ± 1 µM.
